Assay results reported in PMC6803055 (Journal of pharmacological and toxicological methods, 2019).
Like-named read-outs stand apart in the source and are kept apart here.

Experiments:
Male Sprague Dawley rats [1] = experiment: respiratory function, whole-body plethysmography; type: in vivo, rat; details: for increase in tidal volume: throughout 5 hours post-dosing, not significant
[2] = estimated plasma maximum concentrations in dogs; type: in vivo, dog
Male Sprague Dawley rats [3] = experiment: stress-related hormones after plethysmography testing; type: in vivo, rat; details: approximately 5 hours post-dosing, 200, 500, 750 mg/kg p.o., whole-body and head-out testing
pharmacokinetics in rats = type: in vivo; details: rat; for plasma Cmax (mean ± S.E.M.) / Tmax (mean ± S.E.M.): n=4
[4] = molecular target: transient receptor potential cation channel subfamily V member 1 (TRPV1) (Homo sapiens, UniProt Q8NER1); experiment: in vitro functional assays for agonist and antagonist effects; type: biochemical
rats [5] = experiment: original GLP respiratory study using head-out plethysmography; type: in vivo, rat; details: original head-out study, 200, 500, 750 mg/kg p.o.
PDE5 = PDE5 (Homo sapiens, UniProt O76074); experiment: in vitro enzyme assay; type: biochemical; details: 100 μM (36 μg/mL) DSM421
rats [6] = experiment: Irwin test; type: in vivo, rat; details: oral doses of 200, 500 and 750 mg/kg
adenosine A3 receptor = molecular target: T1, adenosine A3 receptor (Homo sapiens, UniProt P0DMS8); experiment: in vitro binding assay
T1 sequence (P0DMS8 1-318): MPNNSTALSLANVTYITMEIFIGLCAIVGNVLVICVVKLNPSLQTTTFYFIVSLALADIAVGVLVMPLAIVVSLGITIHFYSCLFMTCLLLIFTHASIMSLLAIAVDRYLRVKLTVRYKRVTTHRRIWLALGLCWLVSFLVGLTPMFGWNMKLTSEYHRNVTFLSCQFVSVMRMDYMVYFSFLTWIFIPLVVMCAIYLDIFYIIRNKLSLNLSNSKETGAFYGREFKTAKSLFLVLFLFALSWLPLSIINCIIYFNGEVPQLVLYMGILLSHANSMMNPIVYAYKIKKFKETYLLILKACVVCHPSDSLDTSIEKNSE

dogs = experiment: cardiovascular and respiratory assessment in telemetry-instrumented dogs; type: in vivo, dog
PDE6 = experiment: in vitro enzyme assay; type: biochemical; details: 100 μM (36 μg/mL) DSM421
Male Sprague Dawley rats [7] = details: rat, in vivo, po
[8] = whole-body, 200 and 500 mg/kg p.o., peak at 5 hours post-dosing

transient receptor potential cation channel subfamily V member 1 (TRPV1), sequence (Q8NER1 whole entry, species assumed): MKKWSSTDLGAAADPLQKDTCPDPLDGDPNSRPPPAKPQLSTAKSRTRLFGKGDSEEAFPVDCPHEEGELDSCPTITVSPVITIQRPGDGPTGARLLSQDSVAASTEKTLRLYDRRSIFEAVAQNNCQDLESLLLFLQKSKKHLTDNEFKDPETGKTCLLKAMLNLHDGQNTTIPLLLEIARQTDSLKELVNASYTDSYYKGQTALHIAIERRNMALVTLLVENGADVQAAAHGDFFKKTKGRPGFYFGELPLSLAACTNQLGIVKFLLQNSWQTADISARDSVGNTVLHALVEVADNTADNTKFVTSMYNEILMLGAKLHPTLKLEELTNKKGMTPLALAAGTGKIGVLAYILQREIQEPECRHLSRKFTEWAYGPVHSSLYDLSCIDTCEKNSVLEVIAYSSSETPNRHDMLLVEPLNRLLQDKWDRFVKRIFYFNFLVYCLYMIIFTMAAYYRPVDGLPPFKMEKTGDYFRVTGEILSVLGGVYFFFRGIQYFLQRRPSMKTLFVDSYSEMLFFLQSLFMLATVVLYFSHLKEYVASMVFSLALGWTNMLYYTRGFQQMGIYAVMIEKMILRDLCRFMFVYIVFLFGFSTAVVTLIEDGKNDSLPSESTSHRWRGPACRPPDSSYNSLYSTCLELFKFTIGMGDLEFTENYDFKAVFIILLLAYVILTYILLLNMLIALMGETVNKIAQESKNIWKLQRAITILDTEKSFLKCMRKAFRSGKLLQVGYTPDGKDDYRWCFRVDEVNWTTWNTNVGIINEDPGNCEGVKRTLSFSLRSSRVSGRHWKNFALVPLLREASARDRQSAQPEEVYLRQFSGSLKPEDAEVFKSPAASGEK

## Cc1cc(Nc2ccc(C(F)(F)F)nc2)n2nc(C(C)(F)F)nc2n1 [DSM421, 2-(1,1-difluoroethyl)-5-methyl-N-[6-trifluromethyl-3-pyridyl]-[1,2,4]triazolo[1,5-a]pyrimidin-7-amine]
Male Sprague Dawley rats [1]; whole-body chambers, 200, 500, 750 mg/kg p.o., 5-hour post-dosing period
  clinical signs: no DSM421-related clinical signs
Male Sprague Dawley rats [1]; whole-body, 200 mg/kg p.o.
  increase in tidal volume: approximately 5%
Male Sprague Dawley rats [1]; whole-body, 500 mg/kg p.o.
  increase in tidal volume: ~6%
Male Sprague Dawley rats [1]; [8]
  mean minute volume increase: approximately 28%
  mean respiratory rate increase compared to vehicle control: 22–23%
[2]; 30 mg/kg p.o.
  estimated maximum concentration (Cmax) in plasma: 29 µg/mL
[2]; 100 mg/kg p.o.
  estimated maximum concentration (Cmax) in plasma: 69 µg/mL
Male Sprague Dawley rats [3]
  ACTH plasma level, effect of dose: no overall effect for dose
  aldosterone serum level, effect of dose: no overall effect for dose
  corticosterone serum level, effect of dose: overall effect for dose
Pharmacokinetics in rats; 200 mg/kg p.o.
  plasma Cmax (mean ± S.E.M.): 49 µg/mL
Pharmacokinetics in rats; 500 mg/kg p.o.
  Tmax (mean ± S.E.M.): 18 ± 3.5 h
  plasma Cmax (mean ± S.E.M.): 73 µg/mL
Pharmacokinetics in rats; 750 mg/kg p.o. (high dose)
  plasma level by 6 days after dosing relative to LLOQ (0.005 μg/mL): only slightly greater than that
Pharmacokinetics in rats; 750 mg/kg p.o.
  Tmax (mean ± S.E.M.): 27 ± 7.5 h
  plasma Cmax (mean ± S.E.M.): 97 µg/mL
[4]; 100 μM DSM421, agonist mode
  agonist effect (percent of control agonist response): 26%
[4]; 100 μM DSM421, antagonist mode
  antagonist effect: no effect
Rats [5]
  time after administration of death or euthanasia in extremis: 3 to 5 h
PDE5
  inhibition: 59%
Rats [6]
  Irwin test effects: no effects were observed
Adenosine A3 receptor; 10 μM DSM421
  inhibition of control specific binding: 40%
Adenosine A3 receptor; 100 μM (36 μg/mL) DSM421
  inhibition of control specific binding: 91%
dogs; 100 mg/kg p.o.
  clinical observation: emesis
  increase in minute volume: 4- to 5 fold
  increase in respiratory rate: 4- to 5 fold
dogs; 30 and 100 mg/kg p.o.
  cardiovascular function (heart rate, blood pressure, and ECG): no effects
  tidal volume: no effects
dogs; p.o.
  no-observed-effect level (NOEL): 30 mg/kg
PDE6
  inhibition: 72%
Male Sprague Dawley rats [7]; 200 mg/kg
  changes in respiratory rate: no changes in respiratory rate
  clinical signs: no DSM421-related clinical signs
  mean minute volume increase above the control group: approximately 17%
Male Sprague Dawley rats [7]; 500 mg/kg
  animals with hypoactivity, salivation, dyspnea and/or increased body temperature: 2 of the eight animals tested
  increase in respiratory rate above controls: 5–17%
  mean minute volume increase above the control group: ~48%
Male Sprague Dawley rats [7]; 750 mg/kg
  increase in respiratory rate above controls (peak): 41–47%
  increase in tidal volume above controls (peak): 46–57%
  mean minute volume increase above controls (peak): 141%
